Data: publication PMC6539479
“Also recorded” adds a separate entry of the source. Like-named read-outs stand apart in the source and are kept apart here.

Legend:
human TASK-3 channels [1] = conditions: cited from earlier work
human TASK-3 channels [2] = experiment: IonWorks Quattro electrophysiology assay, HEK293 (Coburn et al.); conditions: TASK-3, from reported IC50
TASK-1 = system: TASK-1; set-up: method as in PMID 30803485; conditions: cited from earlier work
[3] = Table S2, TASK-3, ref 16 (supplement ref 1)
[4] = Table 1, Figure 4B and text, TASK-3
[5] = Table S3 reported activity, TASK-3

Compound | IC50 (human TASK-3 channels [1]; [3]) [nM] | also measured
CCOC(=O)C1CCN(c2ncnc3c2CN(Cc2ccccc2)CC3)CC1 [Compound 9c] | 710 ± 80 | 
CCOC(=O)C1CCN(c2ncnc3c2CN(C(=O)NCc2ccccc2)CC3)CC1 [Compound 10b] | 3400 ± 400 | 
CCOC(=O)C1CCN(c2ncnc3c2CN(C(=O)Nc2ccc(-c4ccccc4)cc2)CC3)CC1 [Compound 10c] | 9600 ± 500 | 
CCOC(=O)C1CCN(c2ncnc3c2CN(S(=O)(=O)Cc2ccccc2)CC3)CC1 [Compound 11a] | 3600 ± 400 | 
CCOC(=O)C1CCN(c2ncnc3c2CN(S(=O)(=O)c2ccc(Cl)cc2)CC3)CC1 [Compound 11b] | 3900 ± 500 | 
CCOC(=O)C1CCN(c2ncnc3c2CN(S(=O)(=O)c2cccc(Cl)c2)CC3)CC1 [Compound 11c] | 700 ± 70 | 
CCOC(=O)C1CCN(c2ncnc3c2CN(S(=O)(=O)c2ccccc2Cl)CC3)CC1 [Compound 11d] | 900 ± 100 | 
CCOC(=O)C1CCN(c2ncnc3c2CN(C(=O)c2ccccc2)CC3)CC1 [Compound 12a] | 3600 ± 770 | 
CCOC(=O)C1CCN(c2ncnc3c2CN(C(=O)c2ccc(OC)cc2)CC3)CC1 [Compound 12b] | 1600 ± 180 | 
CCOC(=O)C1CCN(c2ncnc3c2CN(C(=O)c2ccc(Br)cc2)CC3)CC1 [Compound 12c] | 430 ± 60 | 
CCOC(=O)C1CCN(c2ncnc3c2CN(C(=O)c2ccc(C)cc2)CC3)CC1 [Compound 12d] | 310 ± 80 | 
CCOC(=O)C1CCN(c2ncnc3c2CN(C(=O)c2ccc(C4CCCCC4)cc2)CC3)CC1 [Compound 12e] | 120 ± 10 | 
CCOC(=O)C1CCN(c2ncnc3c2CN(C(=O)c2ccc(-c4ccccc4)cc2)CC3)CC1 [Compound 12f] | 74 ± 9 | 
CCOC(=O)C1CCN(c2ncnc3c2CN(C(=O)c2ccc(-c4ccccc4)cc2)CC3(C)C)CC1 [Compound 13a] | 570 ± 30 | 
CCOC(=O)C1CCN(c2ncnc3c2CN(C(=O)c2ccc(-c4ccccc4)cc2)C(C)(C)C3)CC1 [Compound 13b] | 650 ± 30 | 
CCOC(=O)C1CCN(c2nc(C)nc3c2CN(C(=O)c2ccc(-c4ccccc4)cc2)CC3)CC1 [Compound 14b] | 260 ± 50 | 
O=C(c1ccc(-c2ccccc2)cc1)N1CCc2ncnc(N3CCCC3)c2C1 [Compound 17b] |  | IC50 (human TASK-3 channels [1]; [4]): 27000 nM; inhibiting TASK-3 channels (human TASK-3 channels [1]; potency range in words): micromolar range; fold lower affinity than PK-THPP (human TASK-3 channels [2]): ~1000 fold
O=C(c1ccc(-c2ccccc2)cc1)N1CCc2ncnc(N3CCCCC3)c2C1 [Compound 17c] | 4000 ± 1100 | 
O=C(c1ccc(-c2ccccc2)cc1)N1CCc2ncnc(N3CCOCC3)c2C1 [Compound 17d] | 4600 ± 1100 | 
O=C(c1ccc(-c2ccccc2)cc1)N1CCc2ncnc(N3CCS(=O)(=O)CC3)c2C1 [Compound 17e] | 570 ± 60 | IC50 (human TASK-3 channels [1]; [5]): 570 nM
CS(=O)(=O)C1CCN(c2ncnc3c2CN(C(=O)c2ccc(-c4ccccc4)cc2)CC3)CC1 [Compound 18] | 82 ± 5 | IC50 (human TASK-3 channels [1]; [5]): 82 nM
COC1CCN(c2ncnc3c2CN(C(=O)c2ccc(-c4ccccc4)cc2)CC3)CC1 [Compound 19] | 135 ± 37 | IC50 (human TASK-3 channels [1]; [5]): 135 nM
O=C(c1ccc(-c2ccccc2)cc1)N1CCc2ncnc(N3CC[C@H]4OCCC[C@@H]4C3)c2C1 [Compound 20b] | 70 ± 7 | IC50 (human TASK-3 channels [1]; TASK-3): 70 nM; IC50 (human TASK-3 channels [1]; [4]): 70 nM; IC50 (human TASK-3 channels [1]; [5]): 70 nM
CC(C)(O)C1CCN(c2ncnc3c2CN(C(=O)c2ccc(-c4ccccc4)cc2)CC3)CC1 [Compound 21] | 50 ± 6 | IC50 (human TASK-3 channels [1]; TASK-3): 50 nM; IC50 (human TASK-3 channels [1]; [4]): 50 nM; IC50 (human TASK-3 channels [1]; [5]): 50 nM
CCc1noc(C2CCN(c3ncnc4c3CN(C(=O)c3ccc(-c5ccccc5)cc3)CC4)CC2)n1 [Compound 22] | 70 ± 10 | IC50 (human TASK-3 channels [1]; TASK-3): 70 nM; IC50 (human TASK-3 channels [1]; [4]): 70 nM; IC50 (human TASK-3 channels [1]; [5]): 70 nM
CCC(=O)C1CCN(c2ncnc3c2CN(C(=O)c2ccc(-c4ccccc4)cc2)CC3)CC1 [Compound 24] | 80 ± 9 | IC50 (human TASK-3 channels [1]; [5]): 80 nM
CCCC(=O)C1CCN(c2ncnc3c2CN(C(=O)c2ccc(-c4ccccc4)cc2)CC3)CC1 [PK-THPP] |  | potency on TASK-1 relative to TASK-3 (TASK-1): almost nine-times less potency; also recorded: almost nine-fold less potency
